Experimental data reported in patent US12442827B2 (UNIVERSITY OF NORTH TEXAS HEALTH SCIENCE CENTER AT FORT …, priority 2019, dated 2025).

B1: PIP: hormonally regulated protein, a 17-kDa glycoprotein (protein, UniProt P12273 29-146, looked up)
Prolactin-inducible protein: QDNTRKIIIKNFDIPKSVRPNDEVTAVLAVQTELKECMVVKTYLISSIPLQGAFNYKYTACLCDDNPKTFYWDFYTNRTVQIAAVVDVIRELGICPDDAAVIPIKNNRFYTIEILKVE

Experiments:
Format in all cases: cell-based, human
HCFs = assay: LH/FSH ratio in 3D constructs after DHEA, Estrone, Estriol stimulation (Western blot); conditions: HCFs (cells from Healthy individuals), 4 weeks, FIGS. 9A to 9C
Source text: (§1) In FIGS. 9A to 9C, healthy corneas were obtained from the National Disease Research Interchange (NDRI). KC corneas were obtained from individuals immediately following corneal transplantation. Inclusion/exclusion criteria for healthy controls required absence of ophthalmic disease, diabetes, or infectious conditions. Tissue from KC patients who had previously undergone collagen crosslinking was excluded. Corneal stromal cells were isolated from healthy (HCFs) and KC (HKCs) corneas. Both HCFs and HKCs were isolated as previously described. Briefly, using a surgical scalpel, the corneal epithelium and endothelium were removed. The corneal stroma was then washed in sterile PBS, cut into small pieces (approximately 2×2 mm), and placed into flasks; the cells were then allowed to adhere. Explants were grown for 2-4 weeks at 37° C./5% CO2/95% relative humidity, using Eagle's Minimum Essential Media (EMEM) supplemented with 10% fetal bovine serum (Atlanta Biologicals, Flowery Branch, GA, USA), and antibiotic/antimycotic (Anti/Anti, Life Technologies, Grand Island, NY, USA). Once confluent, cells were isolated following trypsinization, subcultured, or frozen using standard cryoprotective protocols. Three-dimensional constructs: —HCFs and HKCs were plated at a density of 1×10^6 cells/well on six-well size polycarbonate membrane inserts with 0.4-μm pores (VWR, Radnor, PA, USA). The cells were cultured in EMEM containing 10% FBS, 1% antibiotic, and stimulated with a stable Vitamin C derivative (0.5 mM 2-O-α-D-glucopyranosyl-L-ascorbic acid: Sigma-Aldrich, St. Louis, MO, USA). Cultures were grown for a total of 4 weeks and fresh media was supplied every other day for the duration of the study. Protein extraction and further analysis occurred at the 4-week timepoint.
(§2) All cultures were collected and washed twice with PBS, and total protein was isolated using 1× radioimmunoprecipitation assay (RIPA) buffer (50 mM Tris pH 8, 150 mM NaCl, 1% Triton X-100, and 0.1% SDS) containing a protease inhibitor cocktail (Sigma-Aldrich, St. Louis, MO, USA). Cell lysates were centrifuged at 4° C., and the supernatant was isolated and subjected to a Pierce BCA Protein assay (ThermoScientific, Rockford, IL, USA) for protein concentration quantification. Novex 4-20% Tris-glycine mini WedgeWell format 12-well gels (FisherScientific, Hampton, NH, USA) were electrophoresed at 130 V for 1.5 h, and transferred onto a nitrocellulose membrane at 100 V for 1 hour on ice. B lots were blocked in 5% dry milk (Great Value, Bentonville, AR, USA) for 1 h, at room temperature, with shaking. […] Results were analyzed by normalizing values to the expression of housekeeping antibody β-Actin (Abcam, Cambridge, MA, USA).

HKCs = assay: as above; conditions: HKCs (cells from Keratoconus patients), 4 weeks, FIGS. 9A to 9C
Source text: as §1, §2

Healthy cells (HCFs) = assay: LH/FSH ratio after PIP treatment (Western blot); conditions: PIP 50-500 ng/ml, 48 hours, in a concentration dependent manner, FIG. 12
Description: (§3) In FIG. 12, HCFs and HKCs were seeded in 12-well plates at 5×10^5 cells/well in regular media. 24 hours later media was replaced for treatment media (regular media supplemented with the treatment). The treatments consisted on five different concentrations of PIP: 50 ng/ml, 100 ng/ml, 200 ng/ml, 350 ng/ml and 500 ng/ml at a number of four wells per treatment. After 48 hours treatment finished and all the wells were wash with PBS and proteins were extracted using 1 ml of RIPA buffer 1×. Bradford assay (Thermo scientific, IL, USA) was carried out to determine the protein concentration and normalize the samples. For western blot analysis samples were mixed with loading buffer and equal amounts of protein were loaded (25 μg per lane) on a 4-20% Tris-Glycine gel (Novex, Life technologies, Carlsbad, CA) and electrophoresed at 135-140V for 1.5 hour. Each sample was run single. T hereafter, the gel was transferred on to a nitrocellulose membrane (Novex, Nitrocellulose membrane, Life Technologies, Carlsbad, CA), at 100V for 1 hour on ice. Finally, the membranes were blocked in milk (5% milk in TBST; Thermo scientific, IL, USA) for 1 hour and incubated overnight in the rocker at 4° C. with the primary antibody at 1:250 dilution. […] GAPDH (rabbit polyclonal ab9485, Abcam, Cambridge, MA) was used as housekeeping for all the targets at a dilution of 1:1000. […]

KC cells (HKCs) = assay: LH/FSH ratio after PIP treatment (Western blot); conditions: PIP 50-500 ng/ml, 48 hours, in a concentration dependent manner, FIG. 12
Description: as §3

| Molecule | LH/FSH ratio modulated in vitro (HCFs) | LH/FSH ratio modulated in vitro (HKCs) | LH/FSH ratio modulation (Healthy cells (HCFs)) | LH/FSH ratio modulation (KC cells (HKCs)) |
| --- | --- | --- | --- | --- |
| C[C@]12CC[C@@H]3c4ccc(O)cc4CC[C@H]3[C@@H]1C[C@@H](O)[C@@H]2O [Estriol] | moving towards a disease-phenotype | “recovering” towards a healthy phenotype | – | – |
| C[C@]12CC[C@H](O)CC1=CC[C@@H]1[C@@H]2CC[C@]2(C)C(=O)CC[C@@H]12 [DHEA] | moving towards a disease-phenotype | “recovering” towards a healthy phenotype | – | – |
| B1 | – | – | modulated | modulated |
